{"source": "patent US20200032271A1", "about": "“COMBINATION THERAPY WITH LIPOSOMAL ANTISENSE OLIGONUCLEOTIDES” (Bio-Path Holdings, Inc., priority 2016, published 2020)", "key": {"[1]": {"tested_on": "five strains of Salmonella", "experiment": "Ames mutagenicity study", "assay_type": "cell-based", "conditions": "presence and absence of S-9", "experimental": "BP1001 was tested in an Ames mutagenicity study. Sodium chloride (0.9%) was added to vials of BP1001 containing 5 mg of Grb2 oligonucleotide. The sample was tested against five strains of Salmonella in various concentrations in the presence and absence of the S-9 enzyme activation system. The sample was not mutagenic to the strains tested."}, "[2]": {"experiment": "Phase I study: dose-limiting toxicity and maximum tolerated dose", "assay_type": "in vivo, human", "experimental": "A BP1001 phase I study was conducted in two parts: (A) BP1001 dose escalation and (B) BP1001 with concurrent low-dose cytarabine (LDAC) dose expansion. For dose escalation (Part A), a standard “3+3” design was used in which successive cohorts of 3 or more patients with hematologic malignancies were treated at escalating doses from 5 to 135 mg/m^2 of BP1001 until a maximum tolerated dose (MTD) was identified. For the dose expansion portion of the study (Part B), two successive subsets of patients with AML were treated with BP1001 at the MTD (or highest tested dose [HTD]) and one level below the MTD (or HTD) in combination with a fixed dose of LDAC to further characterize safety and biological effect, as well as identify the recommended phase 2 dose. Both parts of the study employed an open-label, sequential, dose-escalation design to assess safety, tolerability and toxicity, pharmacokinetics (PK), tumor response, and anti-leukemic activity. A total of 39 patients were treated in the study: AML (n=30), CML-BP (n=5), and MDS (n=4). Of 39 patients, 27 were evaluable; 12 failed completion of a full cycle due to disease progression and were replaced per protocol. Only one patient on 5 mg/m^2 experienced a dose-limiting toxicity (DLT), grade 3 mucositis and hand-foot syndrome, while on high-dose hydroxyurea for proliferative CML-BP. The study medication could not be ruled out as a contributing factor, so this event was reported as a DLT. Upon expansion to six patients, no other patient developed a DLT. No other drug related toxicity has been observed in any of the patients treated. […] The HTD for BP1001 is 90 mg/m^2.\nThe study was designed as a standard 3+3 dose escalation trial for the assessment of safety, pharmacokinetics and efficacy of BP1001 in adult patients diagnosed with refractory/relapsed Philadelphia chromosome positive CML or ALL, AML, or MDS. Cohorts of three patients were enrolled at each dose level. The initial dose of BP1001 was 5 mg/m^2 (Cohort 1). If one patient developed a grade 3 or higher toxicity, three more patients were accrued at that dose level. […]"}}, "note": "[PEt] = P-ethoxy (ethyl phosphotriester) internucleoside linkage"}
{"substance": "BP1001: liposome-incorporated P-ethoxy antisense oligodeoxynucleotide (5′-ATATTTGGCGATGGCTTC-3′, SEQ ID NO: 1) specific to grb2 mRNA, in neutral DOPC liposomes (DNA, all [PEt], methylation of C not given here; incorporated in neutral DOPC liposomes)", "values": [{"measurement": "mutagenicity", "setting": "[1]", "value": "not mutagenic"}, {"measurement": "patients with dose-limiting toxicity (grade 3 mucositis and hand-foot syndrome)", "setting": "[2]; 5 mg/m^2, patient on high-dose hydroxyurea for CML-BP, no other DLT after expansion to six", "value": "one"}, {"measurement": "highest tested dose (HTD)", "setting": "[2]; patients", "value": 90, "unit": "mg/m^2"}, {"measurement": "maximum tolerated dose (MTD)", "setting": "[2]; patients, 5 to 90 mg/m^2 i.v. twice weekly", "value": "not identified"}]}
